This is an account of results in patent US20250235456A1, “METHODS OF USE FOR AZA-QUINAZOLINE COMPOUNDS” (Iambic Therapeutics, Inc., priority 2024, published 2025).

Common to all, as to type: biochemical
Experiment [1] concerns the target CDK4/Cyclin D1 (Homo sapiens (Human), UniProt P11802). The experiment can be described thus: CDK4/Cyclin D1 CHEF Assay. The conditions noted are these: AQT; read-out: CDK4/CyclinD1 AQT IC50. The text has this: CDK4/Cyclin D1 CHEF Assay
The purpose of CDK4/Cyclin Dl assay is to evaluate the inhibition (% inhibition and IC50 values) of small molecule inhibitors by using a Chelation-Enhance Fluorescence (CHEF) assay. In a CHEF assay, phosphorylation of a peptide substrate results in proportional increase in fluorescence. CHEF kinase assay use peptide substrates containing a synthetic alpha-amino acid with a side chain bearing an 8-hydroxyquinoline derivative (sulfonamido-oxide, Sox). Upon phosphorylation of a nearby serine, threonine or tyrosine and in the presence of Mg(II), the spectral properties of the Sox residue are altered, emitting 485 nm wavelength light when excited with a 360 nm wavelength light source. CDK4/Cyclin D1 catalyzes the phosphoryl transfer to the SOX-labeled substrate peptide AQT0258 from Assayquant Technologies. […] The reaction was initiated with the addition of substrate solution, following a 30-minute pre-incubation of enzyme and inhibitor at 22° C. in the reaction mix. Reactions were allowed to proceed for 3 hrs at 22° C., followed by fluorescence read of the reaction. The IC50 determinations were made from a plot of the fractional velocity as a function of inhibitor concentration fit to the 4 parameters IC50 equation.

Experiment [2] concerns the target CDK1/Cyclin B1 (Homo sapiens (Human), UniProt P06493). As to the kind of experiment: CDK1/Cyclin B1 ADP-Glo Kinase Assay. The method, then: CDK1/Cyclin B1 ADP-Glo Kinase Assay
(§1) The purpose of CDK1/Cyclin Bi assay is to evaluate the inhibition (% inhibition and IC50 values) of small molecule inhibitors by using a Luminescent based ADP-Glo assay. CDK1/Cyclin B1 catalyzes the production of ADP from ATP. ADP-Glo assay monitors ADP producing biochemical reactions. ADP-Glo is performed in 2 steps upon completion of kinase reaction: a combined termination of kinase reaction and depletion of remaining ATP in the first step, and conversion of generated ADP to ATP and the newly produced ATP to light output using luciferase/luciferin reaction in the second step. The luminescent signal generated is proportional to the ADP concentration produced and is correlated with the kinase activity. CDK1/Cyclin B1 was purchased from Carna (Cat 04-102). […] The assay was initiated with the addition of ATP-containing substrate solution, following a 30-minute pre-incubation of enzyme and inhibitor at room temperature in the reaction mixture. The reaction was stopped after 90 minutes at room temperature by the addition of 10 μL of ADP-GLO Reagent. After a 90 minute incubation, 20 μL of Kinase Detection Reagent was added. Samples were incubated for 40 minutes, after which plate well luminescence was measured on a Envision microplate reader. The IC50 determinations were made from a plot of the fractional velocity as a function of inhibitor concentration fit to the 4 parameters IC50 equation.

The target in experiment [3] is CDK6/Cyclin D3 (Homo sapiens (Human), UniProt Q00534). The experiment can be described thus: CDK6/Cyclin D3 ADP-Glo Kinase Assay. The conditions noted are these: read-out: CDK6/CyclinD3 IC50. As to the method:
CDK6/Cyclin D3 ADP-Glo Kinase Assay
as §1, with “of the CDK6/Cyclin D3” for “of CDK1/Cyclin Bi”, “values) in the presence” for “values)”, “assay. CDK6/Cyclin D3” for “assay. CDK1/Cyclin B1”, “activity. CDK6/Cychin D3” for “activity. CDK1/Cyclin B1”, “from Carna.” for “from Carna (Cat 04-102).”, “a 90-minute” for “a 90 minute”
A general note: ADP-Glo first removes unused ATP, then detects ADP through luciferase.

Each structure is given as a SMILES string. pIC50: −log10 of the molar value. Bounds are passed on as bounds.

CDK6/Cyclin D3, sequence (Q00534 whole entry): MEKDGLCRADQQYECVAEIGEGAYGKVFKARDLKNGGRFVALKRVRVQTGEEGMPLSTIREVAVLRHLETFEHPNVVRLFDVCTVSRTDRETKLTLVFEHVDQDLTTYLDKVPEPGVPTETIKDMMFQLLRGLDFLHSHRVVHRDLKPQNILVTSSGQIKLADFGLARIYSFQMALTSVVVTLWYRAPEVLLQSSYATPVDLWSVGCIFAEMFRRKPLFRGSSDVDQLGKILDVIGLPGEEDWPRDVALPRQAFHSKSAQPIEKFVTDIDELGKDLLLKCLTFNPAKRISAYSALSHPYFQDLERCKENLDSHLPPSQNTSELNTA
CDK6/Cyclin D3, sequence (P30281 whole entry partner): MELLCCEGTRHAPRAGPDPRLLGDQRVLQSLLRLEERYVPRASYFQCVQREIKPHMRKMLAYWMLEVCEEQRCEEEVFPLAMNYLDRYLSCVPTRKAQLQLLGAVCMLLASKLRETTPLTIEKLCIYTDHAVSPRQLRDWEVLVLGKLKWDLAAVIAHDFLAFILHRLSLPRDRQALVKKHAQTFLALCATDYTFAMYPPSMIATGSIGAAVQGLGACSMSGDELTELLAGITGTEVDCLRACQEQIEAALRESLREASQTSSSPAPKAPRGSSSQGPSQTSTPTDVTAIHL
CDK4/Cyclin D1, sequence (P11802 whole entry, species assumed): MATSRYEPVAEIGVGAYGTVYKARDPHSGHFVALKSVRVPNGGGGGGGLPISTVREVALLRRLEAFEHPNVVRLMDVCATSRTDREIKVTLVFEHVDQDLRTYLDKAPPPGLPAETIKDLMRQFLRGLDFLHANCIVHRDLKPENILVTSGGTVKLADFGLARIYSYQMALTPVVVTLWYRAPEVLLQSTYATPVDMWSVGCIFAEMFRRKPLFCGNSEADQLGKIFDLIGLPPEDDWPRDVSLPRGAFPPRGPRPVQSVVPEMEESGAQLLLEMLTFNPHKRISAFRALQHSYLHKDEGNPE
CDK4/Cyclin D1, sequence (P24385 whole entry partner, species assumed): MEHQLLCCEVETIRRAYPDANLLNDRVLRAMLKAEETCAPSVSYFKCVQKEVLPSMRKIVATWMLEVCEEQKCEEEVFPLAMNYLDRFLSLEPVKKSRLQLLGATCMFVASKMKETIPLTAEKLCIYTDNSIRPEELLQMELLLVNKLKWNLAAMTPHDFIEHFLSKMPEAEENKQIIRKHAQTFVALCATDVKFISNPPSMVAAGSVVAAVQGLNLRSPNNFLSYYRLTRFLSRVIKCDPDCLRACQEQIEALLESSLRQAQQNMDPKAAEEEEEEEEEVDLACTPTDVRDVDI
CDK1/Cyclin B1, sequence (P06493 whole entry): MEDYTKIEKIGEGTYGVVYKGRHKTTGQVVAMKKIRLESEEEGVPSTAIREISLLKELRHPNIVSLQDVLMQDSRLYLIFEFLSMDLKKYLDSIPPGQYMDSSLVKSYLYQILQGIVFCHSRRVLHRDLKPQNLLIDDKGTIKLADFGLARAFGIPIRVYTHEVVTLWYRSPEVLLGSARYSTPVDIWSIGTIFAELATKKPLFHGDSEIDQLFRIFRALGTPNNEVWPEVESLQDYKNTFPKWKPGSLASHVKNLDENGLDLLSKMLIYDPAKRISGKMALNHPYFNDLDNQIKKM
CDK1/Cyclin B1, sequence (P14635 whole entry partner): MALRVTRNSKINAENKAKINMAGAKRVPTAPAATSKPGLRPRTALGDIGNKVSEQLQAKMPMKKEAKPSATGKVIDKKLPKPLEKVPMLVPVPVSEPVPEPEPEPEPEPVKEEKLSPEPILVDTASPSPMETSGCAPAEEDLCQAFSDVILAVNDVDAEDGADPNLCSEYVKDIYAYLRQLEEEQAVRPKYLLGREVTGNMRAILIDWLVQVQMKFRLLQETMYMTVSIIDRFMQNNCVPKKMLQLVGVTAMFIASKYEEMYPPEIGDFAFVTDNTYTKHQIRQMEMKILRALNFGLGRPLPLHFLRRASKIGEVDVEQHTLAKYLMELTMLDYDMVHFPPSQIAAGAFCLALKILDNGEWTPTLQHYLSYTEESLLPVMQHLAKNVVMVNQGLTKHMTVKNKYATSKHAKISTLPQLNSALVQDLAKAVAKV

On to `Cc1cc2cnc(NC3CCN(S(=O)(=O)C4CC4)CC3)nc2c(N2CC3(CCNC3)C2)n1` [Compound 25, N-(1-(cyclopropylsulfonyl)piperidin-4-yl)-6-methyl-8-(2,6-diazaspiro[3.4]octan-2-yl) pyrido[3,4-d]pyrimidin-2-amine], for which the pIC50 in experiment [1] is above 6.70; in experiment [2], 6.30 to 6.70; in experiment [3] it was above 6.70.

For `Cc1cc2cnc(Nc3cc4c(cc3F)CN(S(C)(=O)=O)C4)nc2c(N2CC3(CCNC3)C2)n1` [Compound 39, N-(6-fluoro-2-(methylsulfonyl)isoindolin-5-yl)-6-methyl-8-(2,6-diazaspiro [3.4]octan-2-yl)pyrido[3,4-d]pyrimidin-2-amine], the pIC50 in experiment [1] was 6.30 to 6.70; in experiment [2], below 5.70; in experiment [3] it was below 5.70.

With `Cc1cc2cnc(N[C@H]3CC[C@H](CN(C)C)CC3)nc2c(N2CCC3(C2)CC3(F)F)n1` (stereo partly shown) [Compound 40, 8-(1,1-difluoro-5-azaspiro[2.4]heptan-5-yl)-N-((1r,4r)-4-((dimethylamino)methyl)cyclohexyl)-6-methylpyrido[3,4-d]pyrimidin-2-amine], the pIC50 in experiment [1] is above 6.70; in experiment [2] it was below 5.70; in experiment [3], above 6.70.

Take `Cc1cc2cnc(Nc3ccc4c(c3)CN(C)C4)nc2c(N2CC3(C2)CN(C2CC2)C3)n1` [Compound 44, 8-(6-cyclopropyl-2,6-diazaspiro[3.3]heptan-2-yl)-6-methyl-N-(2-methylisoindolin-5-yl)pyrido[3,4-d]pyrimidin-2-amine]: the pIC50 is 6.30 to 6.70 in experiment [1] and below 5.70 in experiment [2].

With `Cc1cc2cnc(N[C@H]3CC[C@@H](CN(C)C)CC3)nc2c(N2CCC3(C2)CC3(F)F)n1` (stereo partly shown) [Compound 45, 8-(1,1-difluoro-5-azaspiro[2.4]heptan-5-yl)-N-((1s,4s)-4-((dimethylamino)methyl)cyclohexyl)-6-methylpyrido[3,4-d]pyrimidin-2-amine], the results for the pIC50 in experiment [1] and in experiment [2] were above 6.70 and below 5.70, respectively.

`Cc1cc2cnc(NC3CCN(S(C)(=O)=O)CC3)nc2c(N2CCC3(CCC3(F)F)C2)n1` (stereo not shown) [Compound 52, 8-(1,1-difluoro-6-azaspiro[3.4]octan-6-yl)-6-methyl-N-(1-(methylsulfonyl)piperidin-4-yl)pyrido[3,4-d]pyrimidin-2-amine]: the pIC50 in experiment [1], in experiment [2] and in experiment [3] was above 6.70 each time.

Take `Cc1cc2cnc(NC3CCN(S(C)(=O)=O)CC3)nc2c(N2CCC3(C2)CC(F)(F)C3)n1` [Compound 53, 8-(2,2-difluoro-6-azaspiro[3.4]octan-6-yl)-6-methyl-N-(1-(methylsulfonyl)piperidin-4-yl)pyrido[3,4-d]pyrimidin-2-amine]: the pIC50 is above 6.70 in experiment [1], below 5.70 in experiment [2] and above 6.70 in experiment [3].

For the compound `Cc1cc2cnc(NC3CCN(S(C)(=O)=O)CC3)nc2c(N2CCC3(CC3)C2)n1` [Compound 54, 6-methyl-N-(1-(methylsulfonyl)piperidin-4-yl)-8-(5-azaspiro[2.4]heptan-5-yl)pyrido[3,4-d]pyrimidin-2-amine], the pIC50 in experiment [1], in experiment [2] and in experiment [3] was above 6.70 in each case.

In the case of `O=S(=O)(CC1CCC1)N1CCC(Nc2ncc3cc(C(F)F)nc(N4CC5(CCNC5)C4)c3n2)CC1` [Compound 55], the pIC50 in experiment [1], in experiment [2] and in experiment [3] was above 6.70 throughout.

Take `Cc1cc2cnc(NC3CCN(S(=O)(=O)C4CC4)CC3)nc2c(N2CC(O)(C3CC3)C2)n1` [Compound 56, 3-cyclopropyl-1-(2-((1-(cyclopropylsulfonyl)piperidin-4-yl)amino)-6-methylpyrido[3,4-d]pyrimidin-8-yl)azetidin-3-ol]: the pIC50 in experiment [1], in experiment [2] and in experiment [3] was above 6.70 each time.

`Cc1cc2cnc(NC3CCN(S(=O)(=O)C4CC4)CC3)nc2c(N2CCC(OC(F)F)C2)n1` (stereo not shown) [Compound 58, N-(1-(cyclopropylsulfonyl)piperidin-4-yl)-8-(3-(difluoromethoxy)pyrrolidin-1-yl)-6-methylpyrido[3,4-d]pyrimidin-2-amine]: the pIC50 in experiment [1], in experiment [2] and in experiment [3] was above 6.70 throughout.

Take `CS(=O)(=O)N1CCC(Nc2ncc3cc(C4CC4)nc(N4CC(F)(F)C5(CNC5)C4)c3n2)CC1` [Compound 60, 6-cyclopropyl-8-(8,8-difluoro-2,6-diazaspiro[3.4]octan-6-yl)-N-(1-(methylsulfonyl)piperidin-4-yl)pyrido[3,4-d]pyrimidin-2-amine]: the pIC50 in experiment [1], in experiment [2] and in experiment [3] was above 6.70 in each case.

As for `Cc1cc2cnc(NC3CCN(S(=O)(=O)C4CC4)CC3)nc2c(N2CC3(CCNCC3(F)F)C2)n1` [Compound 61, N-(1-(cyclopropylsulfonyl)piperidin-4-yl)-8-(5,5-difluoro-2,7-diazaspiro[3.5]nonan-2-yl)-6-methylpyrido[3,4-d]pyrimidin-2-amine], the pIC50 in experiment [1], in experiment [2] and in experiment [3] was above 6.70 each time.

On to `Cc1cc2cnc(NC3CCN(S(=O)(=O)C4CC4)CC3)nc2c(N2CC(C#N)(CCF)C2)n1` [Compound 68, 1-(2-((1-(cyclopropylsulfonyl)piperidin-4-yl)amino)-6-methylpyrido[3,4-d]pyrimidin-8-yl)-3-(2-fluoroethyl) azetidine-3-carbonitrile], for which the figures for the pIC50 in experiment [1] and in experiment [2] were 6.30 to 6.70 and below 5.70, respectively.

Regarding `Cc1cc2cnc(NC3CCN(S(C)(=O)=O)CC3)nc2c(C2CC(C)(CO)C2)n1` (stereo not shown) [Compound 69, (1-methyl-3-(6-methyl-2-((1-(methylsulfonyl)piperidin-4-yl)amino)pyrido[3,4-d]pyrimidin-8-yl)cyclobutyl) methanol], the pIC50 in experiment [1] and in experiment [3] was above 6.70 throughout.

On to `Cc1cc2cnc(NC3CCN(S(=O)(=O)C4CC4)CC3)nc2c(N2CC(N3CC(F)C3)C2)n1` [Compound 72, N-(1-(cyclopropylsulfonyl)piperidin-4-yl)-8-(3-fluoro-[1,3′-biazetidin]-1′-yl)-6-methylpyrido[3,4-d]pyrimidin-2-amine], for which the pIC50 in experiment [1] and in experiment [3] was 6.30 to 6.70 each time.

Turning to `Cc1cc2cnc(NC3CCN(S(C)(=O)=O)CC3)nc2c(N2CC3(CC(O)C3)C2)n1` [Compound 73, 2-(6-methyl-2-((1-(methylsulfonyl)piperidin-4-yl)amino)pyrido[3,4-d]pyrimidin-8-yl)-2-azaspiro[3.3]heptan-6-ol], the pIC50 in experiment [1] was above 6.70; in experiment [3], 6.30 to 6.70.

For the compound `Cc1cc2cnc(NC3CCN(S(=O)(=O)C4CC4)CC3)nc2c(N2CC(CS(C)(=O)=O)C2)n1` [Compound 74, N-(1-(cyclopropylsulfonyl)piperidin-4-yl)-6-methyl-8-(3-((methylsulfonyl)methyl)azetidin-1-yl)pyrido[3,4-d]pyrimidin-2-amine], the pIC50 in experiment [1] and in experiment [3] was 6.30 to 6.70 throughout.

`COCCN1CC2(CC(c3nc(C4CC4)cc4cnc(NC5CCN(S(=O)(=O)CC6CCC6)CC5)nc34)C2)C1` [Compound 80, N-(1-((cyclobutylmethyl)sulfonyl)piperidin-4-yl)-6-cyclopropyl-8-(2-(2-methoxyethyl)-2-azaspiro[3.3]heptan-6-yl)pyrido[3,4-d]pyrimidin-2-amine]: the pIC50 in experiment [1] and in experiment [3] was above 6.70 throughout.
